{
  "source": "patent US6589504B1",
  "about": "“Compounds and methods for diagnosing and treating amyloid-related conditions” (Pharmacia & Upjohn Company, priority 2000, dated 2003)",
  "key": {"[1]": {"assay": "In vivo determination of plasma and brain exposure (AUC) after oral dosing", "details": "normal mice; for Kp: brain/plasma", "procedure": "Plasma and brain exposure were assessed by measuring area under the curve (AUC) after oral dosing of normal mice.\nThe brain to plasma ratios were calculated and reported below.\nThe terminal half-life of compound in the brain was measured to determine the dosing frequency for 10-day tolerance studies. For the three highest doses, brain terminal half-life ranged from 5-7 h."}, "[2]": {"molecular_target": "T1, amyloid plaque in brains of Tg mice (Homo sapiens, UniProt P05067)", "T1 construct": "from tissue; host or cells: frozen, methanol-fixed brain sections of 12-14 month-old Tg mice", "T1 sequence (P05067 672-713 limits assumed)": "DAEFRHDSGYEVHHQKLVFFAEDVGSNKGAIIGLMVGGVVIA", "assay": "Postmortem staining of amyloid plaque in brain sections", "procedure": "Brains from 12-14 month-old Tg mice were frozen and sectioned at −20° C. Each section was fixed in ice cold methanol (Aldrich Chemical Co., Milwaukee, Wis.) for 10 minutes, rinsed in buffer and incubated in 4-methyl-7-methoxy-2-(4-quinolylmethylenehydrazino)quinoline for 90 minutes at room temperature. […] Fluorescence intensity in Tg mouse amyloid decreased with drug concentration. […] The […] mouse brains were confirmed to be plaque-free."}, "Neuronal cells": {"tested_on": "Neuronal cells", "assay": "In vitro antioxidant effect, neuronal cytoprotection model", "format": "cell-based", "details": "1, 3, 10, 30 and 100 μM, with and without ferrous ammonium sulfate, 3 hours, LC/MS", "procedure": "The 4-methyl-7-methoxy-2-(4-quinolylmethylene-hydrazino)quinoline was dissolved in 100×stock of aqueous Locke's buffer to obtain concentrations of 1, 3, 10, 30, and 100 μM solution. Neuronal cells were incubated in each compound solution with and without ferrous ammonium sulfate (200 μm) for 3 hours. High concentration supernatant was obtained from each sample. The samples were analyzed under liquid chromatography/mass spectrometry (LC/MS)."}, "[3]": {"assay": "Dose-dependent pharmacokinetics: plasma and brain Cmax after oral dosing", "format": "in vivo", "details": "normal mice, 400 to 3,200 μmol/kg", "procedure": "Dose-proportionality characteristics were assessed by measuring the maximum concentration (Cmax) for plasma and brain concentrations after oral dosing of normal mice. […] Plasma and brain concentrations were measured by HPLC at 0.5 to 24 hours."}, "[4]": {"tested_on": "primary neuronal model of FAS-induced lipid peroxidation toxicity", "assay": "In vitro antioxidant effect, ferrous ammonium sulfate (FAS)-induced oxidative toxicity model", "format": "cell-based", "procedure": "The 4-methyl-7-methoxy-2-(4-quinolylmethylene-hydrazino)quinoline was tested in a primary neuronal model of FAS-induced lipid peroxidation toxicity. The compound was treated in two manners. In one manner, the compound was solubilized as 100×stock in 100% dimethyl sulfoxide (DMSO) to afford panel A. In another manner, the compound was solubilized in aqueous Locke's buffer to give panel B."}, "[5]": {"molecular_target": "T2, human β-amyloid containing plaques (Homo sapiens, UniProt P05067)", "T2 construct": "from tissue; host or cells: brain of transgenic (Tg) mice carrying the human β-APP gene", "T2 sequence (P05067 672-713 limits assumed)": "as above", "assay": "Determination of in vivo brain distribution (fluorescence of brain sections)", "procedure": "Transgenic mice, designated “Tg”, were obtained. The transgenic mice carry the human gene for β-APP, a gene associated with β-amyloid deposition in the brain. The mice were treated with.the quinolinehydrazone compound, 4-methyl-7-methoxy-2-(4-quinolylmethylhydrazino)quinoline. Dosing was administered either intravenously or orally. The intravenous dose was administered as a single injection (50 μmol/kg). Orally-treated animals received a single dose (400 μmol/kg) via oral gavage, or were dosed twice-a-day for 10 days (400 μmol/kg/dose/day).\nAge-matched normal mice served as a negative control, i.e. no plaque formation in the animals was indicated. The control mice were treated in the same manner as the transgenic mice, but with placebo.\nIn addition, a group of age-matched Tg mice were treated with the carrier vehicle only.\nAll animals were sacrificed beginning 1, 3 and 10 h after the final dose. Fresh brains of the animals were removed, bisected, and positioned in […] (OCT). The brains were immersed into 2-methylbutane, pre-cooled to […] with liquid nitrogen. The brains were cut into 20 μm thick sections at a temperature of −20° C. Brain sections were collected onto poly-L-lysine-coated glass microscopic slide and treated with (1 drop) of 75%, by volume (v/v), glycerin in […](PBS). […]\nThe section adjacent to each compound-treated section of the brain was stained with thioflavin S (Sigma Chemicals, Milwaukee, Wis., U.S.A.). Sections stained with thioflavin S served as a positive control for identifying plaque. The distribution of compound-associated fluorescence was compared with the distribution of thioflavin S-stained section in order to confirm whether the compound bound plaque.\nAll sections were examined 1 h later to assess artifactual drug diffusion within thawed sections over time."}, "[6]": {"tested_on": "amyloid-like proteins with a beta-pleated sheet conformation", "details": "in vitro; cited from earlier work"}, "[7]": {"details": "30 and 100 μM, 1% DMSO experiments (panel A)"}},
  "note": "Like-named read-outs stand apart in the source and are kept apart here.",
  "data": [
    {"molecule": "COc1ccc2c(C)cc(NN=Cc3ccnc4ccccc34)nc2c1", "note": "[4-methyl-7-methoxy-2-(4-quinolylmethylenehydrazino)quinoline]", "values": [
      {"measurement": "Kp", "setting": "[1]; mouse, oral, dose 51 μmole/kg, read-out: B/P Ratio AUC", "result": 5.3},
      {"measurement": "Kp", "setting": "[1]; mouse, oral, dose 208 μmole/kg, read-out: B/P Ratio AUC", "result": 3.2},
      {"measurement": "Kp", "setting": "[1]; mouse, oral, dose 421 μmole/kg, read-out: B/P Ratio AUC", "result": 2.5},
      {"measurement": "Kp", "setting": "[1]; mouse, oral, dose 831 μmole/kg, read-out: B/P Ratio AUC", "result": 5.7},
      {"measurement": "Kp", "setting": "[1]; mouse, oral, dose 1472 μmole/kg, read-out: B/P Ratio AUC", "result": 5.7},
      {"measurement": "Kp", "setting": "[1]; mouse, oral, dose 3024 μmole/kg, read-out: B/P Ratio AUC", "result": 7.3},
      {"measurement": "Kp", "setting": "[1]; mouse, oral, over the dose range tested, read-out: brain levels relative to plasma levels, average", "result": 5},
      {"measurement": "half-life", "setting": "[1]; mouse, brain, oral, three highest doses, read-out: brain terminal half-life", "result": "5 to 7", "unit": "h"},
      {"measurement": "penetration to the brain tissue", "setting": "[1]; oral", "result": "good penetration of the compound to the brain tissue"},
      {"measurement": "plasma exposure, saturation", "setting": "[1]; oral, 3,024 μmol/kg", "result": "evidence of saturation"},
      {"measurement": "brain exposure, dose dependence", "setting": "[1]; oral, 421 to 1,472 μmol/kg", "result": "increased more rapidly"},
      {"measurement": "plasma exposure, dose proportionality", "setting": "[1]; oral, 421 to 1,472 μmol/kg", "result": "increased proportionally"},
      {"measurement": "localization of compound fluorescence, confirmed by thioflavin S staining of adjacent sections", "setting": "[2]; Tg mouse brain sections", "result": "does localize in amyloid plaques"},
      {"measurement": "staining in brains of transgene-free mice", "setting": "[2]; brain sections of transgene-free mice", "result": "not in brains of transgene-free mice"},
      {"measurement": "antioxidant effect", "setting": "Neuronal cells", "result": "demonstrated antioxidant properties"},
      {"measurement": "Cmax for brain, dose proportionality", "setting": "[3]", "result": "increases proportionally"},
      {"measurement": "Cmax for plasma, dose proportionality", "setting": "[3]", "result": "increases proportionally"},
      {"measurement": "cell morphology, brightfield photographs", "setting": "[4]; 10 μM + FAS cells versus control cells", "result": "no different than cells treated with no drug and no FAS"},
      {"measurement": "neuronal protection against FAS", "setting": "[4]; 10 μM compound, 200 μM FAS, 3 hours, 14C-AIB uptake or LDH release", "result": "close to or complete neuronal protection"},
      {"measurement": "drug toxicity to neuronal cells", "setting": "[4]; 30 μM, aqueous preparation (panel B)", "result": "much less drug toxicity"},
      {"measurement": "concentration range of concentration-dependent inhibition of FAS toxicity", "setting": "[4]; 200 μM FAS, 3 hours, 14C-AIB uptake or LDH release", "result": "0.3 to 10", "unit": "µM"},
      {"measurement": "drug toxicity to neuronal cells", "setting": "[4]; [7]", "result": "inherent drug toxicity"},
      {"measurement": "neuronal protection against FAS", "setting": "[4]; [7]", "result": "no neuronal protection"},
      {"measurement": "neuronal protection against FAS", "setting": "[4]; 30 and 100 μM, aqueous preparation (panel B)", "result": "considerable neuronal protection"},
      {"measurement": "plaque burden shown in brain sections compared with thioflavin S stained sections", "setting": "[5]; Tg mice receiving the compound", "result": "marked plaque burden"},
      {"measurement": "drug-related fluorescence in brain sections in areas of plaque formation", "setting": "[5]; Tg mice, i.v. 50 μmol/kg or oral 400 μmol/kg, λex 365 nm, λem 400 nm", "result": "intense drug-related fluorescence"},
      {"measurement": "binding to plaques in vivo", "setting": "[5]; Tg mice, i.v. or oral dosing", "result": "preferentially binds to human β-amyloid containing plaques"},
      {"measurement": "brain penetration", "setting": "[5]; Tg mice, i.v. or oral dosing", "result": "brain penetrable"}
    ]},
    {"molecule": "Nc1c(N=Nc2ccc(-c3ccc(N=Nc4cc(S(=O)(=O)[O-])c5ccccc5c4N)cc3)cc2)cc(S(=O)(=O)[O-])c2ccccc12.[Na+].[Na+]", "note": "[Congo red, 3,3′-[[1,1′-biphenyl]-4,4′-diylbis(azo)]bis[4-amino-1-naphthalenesulfonic acid] disodium salt]", "values": [
      {"measurement": "binding to amyloid-like proteins", "setting": "[6]", "result": "demonstrated binding"}
    ]}
  ]
}
